Columns and labels:
protein MabA [1] = target: T1, protein MabA (Mycobacterium tuberculosis, UniProt P9WGT3); test: Inhibition of the β-ketoacyl reductase activity of MabA after preincubation with antibiotic, NADPH and MnCl2; assay type: biochemical
InhA [2] = target: T2, InhA (Mycobacterium tuberculosis, UniProt P9WGR1); conditions: 100 μM ETH, in the presence of MnCl2 and NADH
InhA [3] = target: T2, InhA; conditions: cited from earlier work
protein MabA [4] = target: T1, protein MabA; test: MabA enzymatic kinetics test (NADPH oxidation at 340 nm)
β-ketoacyl reductase = conditions: Kikuchi et al., 1989, cited from earlier work
enoyl-reductase = conditions: Kikuchi et al., 1989, cited from earlier work
[5] = aqueous solutions; Constantinides & Steim, 1985; cited from earlier work
[6] = system: CC(=O)CC(=O)SCCNC(=O)CCNC(=O)[C@H](O)C(C)(C)COP(=O)(O)OP(=O)(O)OC[C@H]1O[C@@H](n2cnc3c(N)ncnc32)[C@H](O)[C@@H]1OP(=O)(O)O; test: purified protein, by the assay type
[7] = system: CCCCCCC(=O)C(=O)SCCNC(=O)CCNC(=O)[C@H](O)C(C)(C)COP(=O)(O)OP(=O)(O)OC[C@H]1O[C@@H](n2cnc3c(N)ncnc32)[C@H](O)[C@@H]1OP(=O)(O)O; test: purified protein, by the assay type
[8] = system: CCCCCCCCCCC(=O)C(=O)SCCNC(=O)CCNC(=O)[C@H](O)C(C)(C)COP(=O)(O)OP(=O)(O)OC[C@H]1O[C@@H](n2cnc3c(N)ncnc32)[C@H](O)[C@@H]1OP(=O)(O)O; test: purified protein, by the assay type
[9] = other: section 4.1, 25° C., 80 mM sodium phosphate, NADPH Km at 460 μM acetoacetyl-CoA, β-ketoacyl-CoA Km at 100 μM NADPH

T1 sequence (P9WGT3 whole entry, looked up): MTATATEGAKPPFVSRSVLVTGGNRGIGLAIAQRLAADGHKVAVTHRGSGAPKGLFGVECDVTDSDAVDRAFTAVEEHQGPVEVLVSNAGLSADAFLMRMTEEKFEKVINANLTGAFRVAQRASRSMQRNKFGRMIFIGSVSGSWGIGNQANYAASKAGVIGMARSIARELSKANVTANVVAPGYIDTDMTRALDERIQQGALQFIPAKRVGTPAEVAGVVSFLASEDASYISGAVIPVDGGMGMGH
T2 sequence (P9WGR1 whole entry, looked up): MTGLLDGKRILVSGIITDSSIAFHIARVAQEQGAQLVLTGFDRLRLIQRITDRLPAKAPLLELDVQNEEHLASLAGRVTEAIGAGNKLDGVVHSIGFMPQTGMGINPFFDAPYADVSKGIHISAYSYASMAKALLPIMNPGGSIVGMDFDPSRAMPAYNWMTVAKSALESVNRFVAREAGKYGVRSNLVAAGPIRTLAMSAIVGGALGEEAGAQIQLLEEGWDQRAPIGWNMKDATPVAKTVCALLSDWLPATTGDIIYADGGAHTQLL

For `CCc1cc(C(N)=S)ccn1` [ETH, ethionamide], the “effect on the activity of MabA” value (protein MabA [1]; 100 μM ETH, conditions of inhibition by INH, same result as InhA (activity unchanged)) was “same result” and the “effect on the activity of InhA” value (InhA [2]) was “unchanged”.
In the case of `NC(=O)C1=CN([C@@H]2O[C@H](COP(=O)(O)OP(=O)(O)OC[C@H]3O[C@@H](n4cnc5c(N)ncnc54)[C@H](O)[C@@H]3O)[C@@H](O)[C@H]2O)C=CC1` [NADH], the Km (InhA [3]; comparison value for InhA, read-out: Km of the protein InhA for its cofactor) is given as 8 µM and the “MabA activity on substitution of NADPH by NADH” value (protein MabA [4]; NADH at the same concentration as NADPH in the kinetics test) is given as “total loss of the activity”.
For `C/C=C/C(=O)SCCNC(=O)CCNC(=O)[C@H](O)C(C)(C)COP(=O)(O)OP(=O)(O)OC[C@H]1O[C@@H](n2cnc3c(N)ncnc32)[C@H](O)[C@@H]1OP(=O)(O)O` [crotonoyl-CoA], the “activity of InhA in the presence of the 4-carbon substrate” value (InhA [3]; even at 8 mM, Quémard et al., 1995) is given as “no activity”.
For `NNC(=O)c1ccncc1` [isoniazid, isonicotinic acid hydrazide], the “inhibition of the activity of MabA compared with the control without INH” value (protein MabA [1]; 100 μM INH, MabA 150 nM preincubated 2 hours with 100 μM NADPH and 1 μM MnCl2, acetoacetyl-CoA substrate) was 44±3%, the inhibition at 2000 µM (protein MabA [1]; 2 mM isoniazid, MabA 150 nM preincubated 2 hours with 100 μM NADPH and 1 μM MnCl2, acetoacetyl-CoA substrate) was 62 ± 6% and the “effect of INH on the activity of MabA in the absence of MnCl2” value (protein MabA [1]; absence of MnCl2 in the reaction) was “non-significant reduction”. For the same compound, the Ki (β-ketoacyl reductase) was 353 µM, the “inhibition of β-ketoacyl reductase” value (β-ketoacyl reductase; isoniazid 2 mM) was 93% and the Ki (enoyl-reductase) was 5500 µM. The inhibition of enoyl-reductase (enoyl-reductase; isoniazid 2 mM) was 26%.
In the case of `CCCCCCCCCCCCCCCC(=O)SCCNC(=O)CCNC(=O)[C@H](O)C(C)(C)COP(=O)(O)OP(=O)(O)OC[C@H]1O[C@@H](n2cnc3c(N)ncnc32)[C@H](O)[C@@H]1OP(=O)(O)O` [palmitoyl-CoA], the “CMC (critical micellar concentration)” value [5] is listed as 70 µM.
For `CCCCCCCCCCCCCCCCCC(=O)SCCNC(=O)CCNC(=O)[C@H](O)C(C)(C)COP(=O)(O)OP(=O)(O)OC[C@H]1O[C@@H](n2cnc3c(N)ncnc32)[C@H](O)[C@@H]1OP(=O)(O)O` [stearoyl-CoA], the “CMC (critical micellar concentration)” value [5] is listed as 12 µM.
Compound NADPH has a Km (protein MabA [4]; read-out: Km of MabA, section 4.1, 25° C., 80 mM sodium phosphate, NADPH Km at 460 μM acetoacetyl-CoA, β-ketoacyl-CoA Km at 100 μM NADPH) of 39 µM.
Compound “protein MabA (Mycobacterium tuberculosis H37Rv)” has a Km ([6]; 25.0 °C) of 1530 ± 81 µM, a kcat ([6]; 25.0 °C) of 1.9 ± 0.0 s⁻¹ and a Km [6, 9] of 1582 µM. It also gave a Km ([7]; 25.0 °C) of 70 ± 8 µM, a kcat ([7]; 25.0 °C) of 3.5 ± 0.0 s⁻¹ and a Km [7, 9] of 60 µM. It also gave a Km ([8]; 25.0 °C) of 8.3 ± 0.8 µM, a kcat ([8]; 25.0 °C) of 4.3 ± 0.2 s⁻¹ and a Km [8, 9] of 9 µM.

Source: patent US20100240084A1, “USE OF THE PROTIEN MABA (FABG1) OF MYCOBACTERIUM TUBERCULOSIS FOR DESIGNING AND SCREENING ANTIBIOTICS” (priority 2002, published 2010)
